Test [1] has as its target T1, Vascular endothelial growth factor receptor 2 (Homo sapiens, UniProt P35968). Put plainly: Inhibition of human phosphorylated N-terminal-His6 tagged VEGFR2 catalytic domain using 5-FAM-EEPLYWSFPAKKK-CONH2 as substrate after 60 mins by mobility shift assay.
Test [2] has as its target T1, Vascular endothelial growth factor receptor 2. The note with it: 100 uM.
Test [3] shares this target. Put plainly: Inhibition of human unphosphorylated N-terminal-His6 tagged VEGFR2 catalytic domain using 5-FAM-EEPLYWSFPAKKK-CONH2 as substrate after 60 mins by mobility shift assay.

SMILES strings stand for the structures. A value given as a limit tells only on which side of the number the result lay.

What is called IC50 is the concentration that gives 50% inhibition. The term inhibition denotes the share of the control response that was lost under treatment. As usually defined, the Ki is the dissociation constant of the complex between target and ligand, obtained from inhibition or displacement.

T1 sequence (P35968 whole entry, the tested form may be a part): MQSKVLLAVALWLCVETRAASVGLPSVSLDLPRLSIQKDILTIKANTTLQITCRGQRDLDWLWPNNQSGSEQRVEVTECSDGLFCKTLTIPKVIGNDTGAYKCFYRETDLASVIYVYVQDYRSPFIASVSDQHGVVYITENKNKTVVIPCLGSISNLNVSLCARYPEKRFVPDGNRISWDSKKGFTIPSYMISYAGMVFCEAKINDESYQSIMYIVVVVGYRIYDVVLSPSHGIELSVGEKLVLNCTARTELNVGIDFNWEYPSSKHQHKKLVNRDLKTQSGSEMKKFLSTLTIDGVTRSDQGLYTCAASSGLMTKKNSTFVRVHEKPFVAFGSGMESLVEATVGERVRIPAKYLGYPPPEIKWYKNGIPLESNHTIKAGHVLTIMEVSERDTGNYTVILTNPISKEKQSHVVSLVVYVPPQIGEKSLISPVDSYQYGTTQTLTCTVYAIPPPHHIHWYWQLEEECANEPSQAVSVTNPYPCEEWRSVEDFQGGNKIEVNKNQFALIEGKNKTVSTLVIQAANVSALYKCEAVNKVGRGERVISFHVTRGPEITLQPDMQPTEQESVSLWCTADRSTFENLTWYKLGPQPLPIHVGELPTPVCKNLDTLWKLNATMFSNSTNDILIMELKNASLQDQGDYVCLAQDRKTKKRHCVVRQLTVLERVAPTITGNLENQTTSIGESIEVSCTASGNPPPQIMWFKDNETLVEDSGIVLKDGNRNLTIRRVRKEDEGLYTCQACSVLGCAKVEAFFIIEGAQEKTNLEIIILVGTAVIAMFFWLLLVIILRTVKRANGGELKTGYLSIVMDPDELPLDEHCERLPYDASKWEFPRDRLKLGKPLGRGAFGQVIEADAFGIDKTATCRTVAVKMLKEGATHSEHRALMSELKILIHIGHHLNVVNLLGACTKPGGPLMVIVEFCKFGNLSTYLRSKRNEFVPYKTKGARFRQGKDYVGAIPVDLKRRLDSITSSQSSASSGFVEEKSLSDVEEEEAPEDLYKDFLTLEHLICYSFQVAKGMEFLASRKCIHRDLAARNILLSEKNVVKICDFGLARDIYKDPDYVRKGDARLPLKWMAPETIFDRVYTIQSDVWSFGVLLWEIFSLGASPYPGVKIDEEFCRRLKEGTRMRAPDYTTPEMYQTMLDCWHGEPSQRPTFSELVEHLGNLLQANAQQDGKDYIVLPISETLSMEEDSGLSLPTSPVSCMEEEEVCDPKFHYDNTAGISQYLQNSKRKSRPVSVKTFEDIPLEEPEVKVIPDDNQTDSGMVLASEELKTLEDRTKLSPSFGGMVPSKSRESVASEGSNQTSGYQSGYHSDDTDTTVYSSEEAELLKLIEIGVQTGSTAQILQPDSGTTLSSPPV

Consider `Cc1oc(-c2ccccc2)nc1COc1cccc(CO)c1`, for which the IC50 in test [1] is above 100 µM; in test [3], 50 µM. Besides, in test [2], the inhibition came out at 8%. Moreover, in test [3], the Ki amounted to 25 µM.
For the compound `O=C(Nc1cccc(C(F)(F)F)c1)Nc1ccccc1Cl`, the IC50 is above 100 µM in test [1] and 4.4 µM in test [3].
Taken in the same sequence, the figures for `c1ccc2c3c([nH]c2c1)-c1n[nH]cc1CCC3` were 0.86 µM and 0.62 µM.

The values are drawn from ChEMBL document CHEMBL2069184, “A Back-to-Front Fragment-Based Drug Design Search Strategy Targeting the DFG-Out Pocket of Protein Tyrosine Kinases” (ACS Med Chem Lett, 2012).
